This passage reports IC50 results from patent publication US7504393B2, “Benzylamine analogues” (priority 2001, dated 2009).

In experiment [1] the target is T1, acetylcholinesterase (Mus musculus, UniProt P21836).
T1 construct: phosphate buffer solution containing the brain homogenate; from tissue; host or cells: mouse whole brain homogenate
T1 sequence (P21836 32-614): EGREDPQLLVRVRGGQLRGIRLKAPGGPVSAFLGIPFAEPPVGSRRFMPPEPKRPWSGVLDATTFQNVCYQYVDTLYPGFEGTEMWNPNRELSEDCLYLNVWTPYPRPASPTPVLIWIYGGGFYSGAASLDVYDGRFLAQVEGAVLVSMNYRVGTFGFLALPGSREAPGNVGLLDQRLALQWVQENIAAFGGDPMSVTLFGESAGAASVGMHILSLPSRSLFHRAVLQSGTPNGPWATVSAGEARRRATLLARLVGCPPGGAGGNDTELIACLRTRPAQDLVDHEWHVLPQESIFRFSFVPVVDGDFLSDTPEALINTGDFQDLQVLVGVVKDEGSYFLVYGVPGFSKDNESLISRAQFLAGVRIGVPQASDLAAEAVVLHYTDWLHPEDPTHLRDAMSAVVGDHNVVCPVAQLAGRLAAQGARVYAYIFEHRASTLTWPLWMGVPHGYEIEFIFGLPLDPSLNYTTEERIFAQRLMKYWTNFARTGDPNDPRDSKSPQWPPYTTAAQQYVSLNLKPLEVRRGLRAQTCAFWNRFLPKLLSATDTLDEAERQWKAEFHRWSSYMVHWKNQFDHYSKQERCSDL
Description: biochemical. Particulars: for IC50: mouse whole brain homogenate, acetylthiocholine/DTNB, absorbance 412 nm, read-out: IC50 (nM) Acetylcholinesterase inhibitory activity.

In experiment [2] the target is T2, serotonin re-uptake (Rattus norvegicus, UniProt P31652).
T2 construct: synaptosome prepared from rat whole brains except the cerebellums; from tissue; host or cells: synaptosomes from rat whole brain except the cerebellum
T2 sequence (P31652 whole entry): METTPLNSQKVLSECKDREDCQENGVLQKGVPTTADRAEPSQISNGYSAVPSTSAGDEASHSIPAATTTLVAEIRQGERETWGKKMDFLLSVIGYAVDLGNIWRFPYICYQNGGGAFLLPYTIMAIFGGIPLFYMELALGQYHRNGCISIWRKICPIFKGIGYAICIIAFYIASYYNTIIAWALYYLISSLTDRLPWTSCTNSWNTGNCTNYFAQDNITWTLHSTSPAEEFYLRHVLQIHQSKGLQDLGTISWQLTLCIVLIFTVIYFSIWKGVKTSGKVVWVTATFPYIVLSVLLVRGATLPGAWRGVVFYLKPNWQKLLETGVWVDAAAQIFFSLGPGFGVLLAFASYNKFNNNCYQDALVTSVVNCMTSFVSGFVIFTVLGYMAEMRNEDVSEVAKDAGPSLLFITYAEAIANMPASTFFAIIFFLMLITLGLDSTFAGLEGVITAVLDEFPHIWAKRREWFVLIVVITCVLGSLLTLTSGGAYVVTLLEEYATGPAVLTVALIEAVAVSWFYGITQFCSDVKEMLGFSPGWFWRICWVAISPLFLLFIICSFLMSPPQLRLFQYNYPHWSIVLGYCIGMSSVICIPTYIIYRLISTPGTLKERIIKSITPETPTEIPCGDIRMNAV
Kind of experiment: Serotonin re-uptake inhibitory activity (synaptosome, [3H]5-HT). The experiment is classed as biochemical. Conditions: synaptosome from rat whole brain except cerebellum; [3H]5-HT, 37° C.; read-out: IC50 (nM) Serotonin re-uptake inhibitory activity. As for the experimental part:
Serotonin re-uptake inhibitory activity was determined using synaptosome prepared from rat whole brains except the cerebellums. Briefly, 10 μl of DMSO solution-dissolved test substance (control group; DMSO solution alone) was added to 1 ml of synaptosome and incubated for 5 min at 37° C. (in the control, DMSO alone was added to the synaptosome and incubated at 4° C.). Furthermore, 10 μl of [^3H]5-HT solution (final concentration: 10 μM as a total concentration of 5-HT, 100 nM as [^3H]5-HT) was added and incubated for 5 min at 37° C. Then 4 ml of ice-cold saline was added to stop the response. The response solution was filtered, 4 ml of saline was added, and the solution was once again filtered. Furthermore, 5 ml of Pico-Fluor was added, then ^3H levels on filter papers were counted by a liquid scintillation counter. Concentrations of test compounds to inhibit serotonin re-uptake by 50% (IC50) were calculated.

The structures appear in SMILES notation. pIC50: −log10 of the molar value. Where a name gives a salt, the structure may show the parent alone. Read-outs that look alike come from different tables or passages of the source.

In turn, `CNC(CCOc1ccc(Cl)cc1)c1ccc(OC(=O)N(C)C)cc1` (stereo not drawn) [Test Compound 16, 4-[3-(4-Chlorophenoxy)-1-methylaminopropyl]phenyl dimethylcarbamate hydrochloride] showed a pIC50 in experiment [1] of 6.68. For the same molecule, the IC50 in experiment [2] stood at 493 nM.
For `CNC(CCOc1ccc(F)cc1)c1ccc(OC(=O)N(C)C)cc1` (stereo not drawn) [Test Compound 30, 4-[3-(4-Fluorophenoxy)-1-methylaminopropyl]phenyl dimethylcarbamate hydrochloride] the same measures were 6.10 and 594 nM.
As for `CN(C)C(=O)Oc1ccc(C(CCOc2ccc(F)cc2)N(C)C)cc1` (stereo not drawn) [Test Compound 31, hydrochloride], the IC50 came out at 440 nM in experiment [1] and 323 nM in experiment [2].
In experiment [1], `CNC(CCOc1cccc(Cl)c1)c1ccc(OC(=O)N(C)C)cc1` (stereo not drawn) [Test Compound 38, 4-[3-(3-chlorophenoxy)-1-methylaminopropyl]phenyl dimethylcarbamate hydrochloride] gave a pIC50 of 6.76. For the same molecule, the 50% inhibitory concentration (IC50) in experiment [2] is 199 nM.
The like results for `CN(C)C(=O)Oc1ccc(C(CCOc2ccc(Cl)cc2)N(C)C)cc1` (stereo not drawn) [Test Compound 41, 4-[3-(4-Chlorophenoxy)-1-dimethylaminopropyl]phenyl dimethylcarbamate hydrochloride] were, in that order, 7.10 and 507 nM.
`CNC(CCOc1ccc(F)c(F)c1)c1ccc(OC(=O)N(C)C)cc1` (stereo not drawn) [Test Compound 54, 4-[3-(3,4-Difluorophenoxy)-1-methylaminopropyl]phenyl dimethylcarbamate hydrochloride]: in experiment [1], the pIC50 was 6.17. The IC50 in experiment [2] stood at 166 nM.
For `CNC(CCOc1ccc(Cl)c(F)c1)c1ccc(OC(=O)N(C)C)cc1` (stereo not drawn) [Test Compound 55, 4-[3-(4-Chloro-3-fluorophenoxy)-1-methylaminopropyl]phenyl dimethylcarbamate hydrochloride] the same measures were 6.55 and 60 nM.
The like results for `CN[C@H](CCOc1cccc(Cl)c1)c1ccc(OC(=O)N(C)C)cc1` [Test Compound 61, (R)-4-[3-(3-Chlorophenoxy)-1-methylaminopropyl]phenyl dimethylcarbamate hydrochloride] were, in that order, 6.64 and 182 nM.
The like results for `CN[C@H](CCOc1ccc(Cl)cc1)c1ccc(OC(=O)N(C)C)cc1` [Test Compound 62, (R)-4-[3-(4-Chlorophenoxy)-1-methylaminopropyl]phenyl dimethylcarbamate hydrochloride] were, in that order, 6.57 and 343 nM.
`CNC(CCOc1cccc(F)c1)c1ccc(OC(=O)N(C)C)cc1` (stereo not drawn) [Test Compound 68, 4-[3-(3-Fluorophenoxy)-1-methylaminopropyl]phenyl dimethylcarbamate hydrochloride] showed a pIC50 in experiment [1] of 6.24. Besides, the 50% inhibitory concentration (IC50) in experiment [2] is 145 nM.
The like results for `CN(C)C(=O)Oc1ccc(C(CCOc2cccc(F)c2)N(C)C)cc1` (stereo not drawn) [Test Compound 70, 4-[1-Dimethylamino-3-(3-fluorophenoxy)propyl]phenyl dimethylcarbamate hydrochloride] were, in that order, 7.05 and 86 nM.
The like results for `CN(C)C(=O)Oc1ccc(C(CCOc2ccc(F)c(F)c2)N(C)C)cc1` (stereo not drawn) [Test Compound 76, 4-[3-(3,4-Difluorophenoxy)-1-dimethylaminopropyl]phenyl dimethylcarbamate hydrochloride] were, in that order, 6.52 and 124 nM.
Molecule `CN[C@@H](CCOc1cccc(Cl)c1)c1ccc(OC(=O)N(C)C)cc1` [Test Compound 81, (S)-4-[3-(3-Chlorophenoxy)-1-methylaminopropyl]phenyl dimethylcarbamate hydrochloride] showed a pIC50 in experiment [1] of 6.49. Besides, the IC50 in experiment [2] came out at 228 nM.
In experiment [1], `CN[C@@H](CCOc1ccc(Cl)cc1)c1ccc(OC(=O)N(C)C)cc1` [Test Compound 82, (S)-4-[3-(4-Chlorophenoxy)-1-methylaminopropyl]phenyl dimethylcarbamate hydrochloride] had a pIC50 of 7.08. For the same molecule, the IC50 in experiment [2] came out at 377 nM.
In experiment [1], `CN(C)C(=O)Oc1ccc(C(CCOc2ccc([N+](=O)[O-])cc2)N(C)C)cc1` (stereo not drawn) [Test Compound 89, 4-[1-Dimethylamino-3-(4-nitrophenoxy)propyl]phenyl dimethylcarbamate hydrochloride] had a pIC50 of 7.06. Moreover, the IC50 in experiment [2] turned out to be 319 nM.
Turning to `CNC(CCOc1ccc([N+](=O)[O-])cc1)c1cccc(OC(=O)N(C)C)c1` (stereo not drawn) [Test Compound 95, 3-[1-Methylamino-3-(4-nitrophenoxy)propyl]phenyl dimethylcarbamate hydrochloride], the pIC50 in experiment [1] was 7.28. For the same molecule, the IC50 in experiment [2] was 221 nM.
Turning to `CN(C)C(=O)Oc1ccc([C@@H](CCOc2ccc([N+](=O)[O-])cc2)N(C)C)cc1` [Test Compound 102, (R)-4-[1-Dimethylamino-3-(4-nitrophenoxy)propyl]phenyl dimethylcarbamate hydrochloride], in experiment [1], the pIC50 was 6.77. Also, in experiment [2], the IC50 came to 167 nM.
In turn, `CN(C)C(=O)Oc1cccc(C(CCOc2ccc([N+](=O)[O-])cc2)N(C)C)c1` (stereo not drawn) [Test Compound 104, 3-[1-Dimethylamino-3-(4-nitrophenoxy)propyl]phenyl dimethylcarbamate hydrochloride] gave a pIC50 in experiment [1] of 7.28. Further, the IC50 in experiment [2] is 176 nM.
The like results for `CNC(CCOc1ccc([N+](=O)[O-])cc1Cl)c1ccc(OC(=O)N(C)C)cc1` (stereo not drawn) [Test Compound 124, 4-[3-(2-Chloro-4-nitrophenoxy)-1-methylaminopropyl]phenyl dimethylcarbamate hydrochloride] were, in that order, 7.19 and 110 nM.
As to `CN[C@@H](CCOc1ccc([N+](=O)[O-])cc1)c1cccc(OC(=O)N(C)C)c1` [Test Compound 125, (S) -3-[3-(4-Nitrophenoxy)-1-methylaminopropyl]phenyl dimathylcarbamate hydrochloride], the IC50 was 19 nM in experiment [1] and 841 nM in experiment [2].
The molecule `CN[C@@H](CCOc1ccc([N+](=O)[O-])cc1Cl)c1ccc(OC(=O)N(C)C)cc1` [Test Compound 127, (S)-4-[3-(2-Chloro-4-nitrophenoxy)-1-methylaminopropyl]phenyl dimethylcarbamate hydrochloride] had a pIC50 in experiment [1] of 7.40. The IC50 in experiment [2] is 856 nM.
The like results for `CN[C@H](CCOc1ccc([N+](=O)[O-])cc1Cl)c1ccc(OC(=O)N(C)C)cc1` [Test Compound 128, (R)-4-[3-(2-Chloro-4-nitrophenoxy)-1-methylaminopropyl]phenyl dimethylcarbamate hydrochloride] were, in that order, 7.82 and 70 nM.
Take `CN(C)C(=O)Oc1ccc([C@H](CCOc2ccc([N+](=O)[O-])cc2Cl)N(C)C)cc1` [Test Compound 129, (S)-4-[3-(2-Chloro-4-nitrophenoxy)-1-dimethylaminopropyl]phenyl dimethylcarbamate hydrochloride]: in experiment [1], the pIC50 is 7.19. For the same molecule, the IC50 in experiment [2] amounted to 650 nM.
In experiment [1], `CN(C)C(=O)Oc1ccc([C@@H](CCOc2ccc([N+](=O)[O-])cc2Cl)N(C)C)cc1` [Test Compound 130, (R)-4-[3-(2-Chloro-4-nitrophenoxy)-1-dimethylaminopropyl]phenyl dimethylcarbamate hydrochloride] showed a pIC50 of 7.38. Besides, the IC50 in experiment [2] amounted to 88 nM.
For `CN(C)C(=O)Oc1ccc(C(CCOc2ccc([N+](=O)[O-])cc2Cl)N(C)C)cc1` (stereo not drawn) [Test Compound 131, 4-[3-(2-Chloro-4-nitrophenoxy)-1-dimethylaminopropyl]phenyl dimethylcarbamate hydrochloride] the same measures were 7.24 and 129 nM.
`CN(C)C(=O)Oc1cccc([C@@H](CCOc2ccc([N+](=O)[O-])cc2)N(C)C)c1` [Test Compound 136, (R)-3-[3-(4-Nitrophenoxy)-1-dimethylaminopropyl]phenyl dimethylcarbamate hydrochloride] gave a pIC50 in experiment [1] of 6.01. For the same molecule, the IC50 in experiment [2] was found to be 236 nM.
For `CN(C)C(=O)Oc1ccc([C@@H](CCOc2ccc(F)c(F)c2)N(C)C)cc1` [Test Compound 152, (R)-4-[3-(3,4-Difluorophenoxy)-1-dimethylaminopropyl]phenyl dimethylcarbamate hydrochloride] the same measures were 6.51 and 67 nM.

For orientation: pIC50 means the negative decadic logarithm of the IC50, by convention in mol/L. For orientation: IC50 means the concentration that inhibits the measured activity by half.
